Reference: PubChem BioAssay AID256 (DTP/NCI, 2004)
Values joined by “and” are separate entries in the source; they are usually repeats but may differ in a detail not shown here. Equal values may be shown once. Inconclusive results and toxic doses are left out. The calls were made as follows: active = survival T/C of 150% or more; inactive = T/C below 125% in these data.

Tested on: CD2F1 mice, L1210 leukemia ip, survival T/C
Test: NCI In Vivo Anticancer Drug Screen. Data for tumor model L1210 Leukemia (intraperitoneal) in CD2F1 (CDF1) mice
Conditions: endpoint: mean survival time, higher = longer survival
Procedure, shortened: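 Each value reflects a quotient of treated over vehicle control outcomes in mice with a transplanted tumor.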

[1] = dose: 100.0 mg/kg/injection, schedule: Q01DX001 (ip), vehicle: saline with Tween-80
[2] = dose: 200.0 mg/kg/injection, schedule: Q01DX001 (ip), vehicle: saline with Tween-80
[3] = dose: 100.0 mg/kg/injection, schedule: Q04DX003 (ip), vehicle: saline with Tween-80
[4] = dose: 200.0 mg/kg/injection, schedule: Q04DX003 (ip), vehicle: saline with Tween-80
[5] = dose: 400.0 mg/kg/injection, schedule: Q04DX003 (ip), vehicle: saline with Tween-80
[6] = dose: 12.5 mg/kg/injection, schedule: Q01DX009 (ip), vehicle: saline with Tween-80
[7] = dose: 25.0 mg/kg/injection, schedule: Q01DX009 (ip), vehicle: saline with Tween-80
[8] = dose: 50.0 mg/kg/injection, schedule: Q01DX009 (ip), vehicle: saline with Tween-80
[9] = dose: 75.0 mg/kg/injection, schedule: Q01DX001 (ip), vehicle: saline
[10] = dose: 150.0 mg/kg/injection, schedule: Q01DX001 (ip), vehicle: saline
[11] = dose: 75.0 mg/kg/injection, schedule: Q01DX001 (ip), vehicle: other
[12] = dose: 150.0 mg/kg/injection, schedule: Q01DX001 (ip), vehicle: other
[13] = dose: 300.0 mg/kg/injection, schedule: Q01DX001 (ip), vehicle: other
[14] = dose: 12.5 mg/kg/injection, schedule: Q01DX009 (ip), vehicle: other
[15] = dose: 25.0 mg/kg/injection, schedule: Q01DX009 (ip), vehicle: other
[16] = dose: 100.0 mg/kg/injection, schedule: Q01DX009 (ip), vehicle: other

Measured: T/C

CC(=O)Nc1c(C)cccc1[N+](=O)[O-]
inactive: dose: 25.0 mg/kg/injection, schedule: Q01DX001 (ip), vehicle: saline with Tween-80 101 % of control | dose: 50.0 mg/kg/injection, schedule: Q01DX001 (ip), vehicle: saline with Tween-80 97 % of control | [1] 97 % of control

CCC(C)CC(C)C1=NC(C)(C)CC(C)O1 (stereo not given)
inactive: [1] 104 % of control | [2] 90 % of control

C/C(=N\N=C(/C)c1cccc([N+](=O)[O-])c1)c1cccc([N+](=O)[O-])c1
inactive: dose: 100.0 mg/kg/injection, schedule: Q04DX002 (ip), vehicle: Klucel (hydroxypropylcellulose) (HPC) 104 % of control | dose: 200.0 mg/kg/injection, schedule: Q04DX002 (ip), vehicle: Klucel (hydroxypropylcellulose) (HPC) 97 % of control | dose: 400.0 mg/kg/injection, schedule: Q04DX002 (ip), vehicle: Klucel (hydroxypropylcellulose) (HPC) 108 % of control

CCOC1CC(C)C=CO1 (stereo not given)
inactive: dose: 100.0 mg/kg/injection, schedule: Q01DX001 (ip), vehicle: saline + alcohol 108 % of control | dose: 200.0 mg/kg/injection, schedule: Q01DX001 (ip), vehicle: saline + alcohol 104 % of control | dose: 400.0 mg/kg/injection, schedule: Q01DX001 (ip), vehicle: saline + alcohol 96 % of control

O=C1C=CC(=Nc2ccccc2Cl)O1
inactive: [3] 103 % of control | [4] 101 % of control | [5] 100 % of control

Cc1c(C)c(C)c2c(c1C)CCC2O (stereo not given)
inactive: [6] 102 % of control and 105 % of control | [7] 97 % of control and 94 % of control | [8] 100 % of control [middle of 4 runs]

CCOC(=O)C(Cc1ccc(OC)cc1)P(=O)(OCC)OCC (stereo not given)
inactive: dose: 100.0 mg/kg/injection, schedule: Q01DX001 (ip), vehicle: saline 106 % of control | dose: 200.0 mg/kg/injection, schedule: Q01DX001 (ip), vehicle: saline 108 % of control | dose: 400.0 mg/kg/injection, schedule: Q01DX001 (ip), vehicle: saline 101 % of control

CCCCNCC(C)C(=O)OC (stereo not given)
inactive: [3] 98 % of control | [4] 98 % of control | [5] 102 % of control

COC1OC(COC(=O)c2ccccc2)C(OC(=O)c2ccccc2)C(OC(=O)c2ccccc2)C1OC(=O)c1ccccc1 (stereo not given)
inactive: [3] 95 % of control | [4] 91 % of control | [5] 87 % of control

c1ccc2c(c1)c1ccccc1n2CCCCn1c2ccccc2c2ccccc21
inactive: [6] 95 % of control | [7] 87 % of control | [8] 101 % of control and 102 % of control | dose: 100.0 mg/kg/injection, schedule: Q01DX009 (ip), vehicle: saline with Tween-80 97 % of control | dose: 200.0 mg/kg/injection, schedule: Q01DX009 (ip), vehicle: saline with Tween-80 93 % of control

CCCCC(O)C(=O)O (stereo not given)
inactive: [9] 94 % of control | [10] 96 % of control

BrCCCCCCCCCCC1(c2ccccc2)OCCO1
inactive: dose: 100.0 mg/kg/injection, schedule: Q04DX003 (ip), vehicle: Klucel (hydroxypropylcellulose) (HPC) 90 % of control | dose: 200.0 mg/kg/injection, schedule: Q04DX003 (ip), vehicle: Klucel (hydroxypropylcellulose) (HPC) 94 % of control | dose: 400.0 mg/kg/injection, schedule: Q04DX003 (ip), vehicle: Klucel (hydroxypropylcellulose) (HPC) 95 % of control

CN(C)CC1CN(C)CC(CN(C)C)C1(O)C(C(=O)N(C)C)c1ccccc1 (stereo not given)
inactive: [11] 98 % of control | [12] 100 % of control | [13] 98 % of control

CN(C)c1nc(F)nc2c1ncn2C1OC(CO)C(O)C1O (stereo not given)
inactive: [11] 100 % of control | [12] 109 % of control | [13] 109 % of control

CC(C)CC(CC(C)C)C(=O)C1C2CCC(O2)C1C(=O)C(CC(C)C)CC(C)C (stereo not given)
inactive: dose: 25.0 mg/kg/injection, schedule: Q04DX002 (ip), vehicle: saline with Tween-80 88 % of control

CCC(=O)OC1=CC(=O)c2ccccc2C1=O
inactive: [9] 101 % of control | [10] 105 % of control

C[n+]1ccc(/C=C\c2ccc(N(CCCl)CCCl)cc2)c2ccccc21
inactive: dose: 6.25 mg/kg/injection, schedule: Q01DX009 (ip), vehicle: Klucel (hydroxypropylcellulose) (HPC) 98 % of control | dose: 12.5 mg/kg/injection, schedule: Q01DX009 (ip), vehicle: Klucel (hydroxypropylcellulose) (HPC) 101 % of control | dose: 25.0 mg/kg/injection, schedule: Q01DX009 (ip), vehicle: Klucel (hydroxypropylcellulose) (HPC) 112 % of control

NC(=O)Oc1cc(OC(N)=O)cc(N(CCCl)CCCl)c1
inactive: [14] 103 % of control | dose: 25.0 mg/kg/injection, schedule: Q01DX001 (ip), vehicle: water 98 % of control | [15] 114 % of control | dose: 50.0 mg/kg/injection, schedule: Q01DX001 (ip), vehicle: water 108 % of control | dose: 50.0 mg/kg/injection, schedule: Q01DX009 (ip), vehicle: other 111 % of control | dose: 100.0 mg/kg/injection, schedule: Q01DX001 (ip), vehicle: water 108 % of control | [16] 116 % of control | dose: 200.0 mg/kg/injection, schedule: Q01DX001 (ip), vehicle: water 117 % of control | dose: 200.0 mg/kg/injection, schedule: Q01DX009 (ip), vehicle: other 104 % of control | dose: 400.0 mg/kg/injection, schedule: Q01DX001 (ip), vehicle: water 120 % of control

CC(C)NC(=O)c1ccc(N=NN(C)C)cc1
inactive: [14] 91 % of control and 105 % of control | dose: 25.0 mg/kg/injection, schedule: Q01DX009 (ip), vehicle: DMSO 104 % of control | [15] 119 % of control and 100 % of control | dose: 50.0 mg/kg/injection, schedule: Q01DX009 (ip), vehicle: DMSO 110 % of control | [16] 119 % of control

CC(=O)OCC1OC(n2ncc3c2ncn2nnnc32)C(OC(C)=O)C1OC(C)=O (stereo not given)
inactive: dose: 18.75 mg/kg/injection, schedule: Q01DX005 (ip), vehicle: distilled water + alcohol 100 % of control | dose: 37.5 mg/kg/injection, schedule: Q01DX005 (ip), vehicle: distilled water + alcohol 91 % of control | dose: 75.0 mg/kg/injection, schedule: Q01DX005 (ip), vehicle: distilled water + alcohol 103 % of control | dose: 150.0 mg/kg/injection, schedule: Q01DX005 (ip), vehicle: distilled water + alcohol 100 % of control | dose: 300.0 mg/kg/injection, schedule: Q01DX005 (ip), vehicle: distilled water + alcohol 103 % of control

Nc1nc(N)c2c(=O)c(CSc3ccc(C(=O)NC(CCC(=O)O)C(=O)O)cc3)c[nH]c2n1 (stereo not given)
inactive: dose: 0.5 mg/kg/injection, schedule: Q01DX005 (ip), vehicle: sodium bicarbonate 92 % of control and 104 % of control | dose: 1.0 mg/kg/injection, schedule: Q01DX005 (ip), vehicle: sodium bicarbonate 92 % of control and 106 % of control | dose: 2.0 mg/kg/injection, schedule: Q01DX005 (ip), vehicle: sodium bicarbonate 89 % of control and 108 % of control | dose: 4.0 mg/kg/injection, schedule: Q01DX005 (ip), vehicle: sodium bicarbonate 95 % of control and 104 % of control | dose: 8.0 mg/kg/injection, schedule: Q01DX005 (ip), vehicle: sodium bicarbonate 95 % of control and 108 % of control | dose: 16.0 mg/kg/injection, schedule: Q01DX005 (ip), vehicle: sodium bicarbonate 95 % of control and 106 % of control

C[N+](C)(CC(=O)Nc1ccc(Cl)c(Cl)c1)CC(=O)c1ccc(Cl)cc1
inactive: dose: 25.0 mg/kg/injection, schedule: Q01DX009 (ip), vehicle: saline 87 % of control

O=C(O)C1CCCN1C(=O)c1ccccc1 (stereo not given)
inactive: [3] 103 % of control | [4] 93 % of control | [5] 98 % of control

CC(CC(=O)O)[Se][Se]C(C)CC(=O)O (stereo not given)
inactive: [1] 95 % of control | [2] 103 % of control
